Experimental data from patent publication US11117904B2, “Compositions and methods for the delivery of therapeutics” (ViiV Healthcare Company, priority 2016, dated 2021).

Assays:
[1] = Nanoparticle characterization by dynamic light scattering; type: physicochemical; conditions: upon derivatization of native drug into prodrug
Description: Nanoformulations were characterized for particle size, polydispersity index (PDI) and zeta potential by dynamic light scattering (FIG. 1). This was done using a Malvern Zetasizer, Nano Series Nano-ZS (Malvern Instruments Inc., Westborough, Mass.). Nanoparticle morphology was determined by scanning electron microscopy (SEM). Ultra performance liquid chromatography tandem mass-spectrometry (UPLC MS/MS) was used for drug quantitation. […] Further, the improved hydrophobicity of MDTG facilitated production of stable formulations with high drug loading capacity. Nanoformulations were characterized for particle size, polydispersity index (PDI) and zeta potential by dynamic light scattering (DLS) (Table 1). This was done using a Malvern Zetasizer, Nano Series Nano-ZS (Malvern Instruments Inc, Westborough, Mass.). Nanoparticle morphology was determined by scanning electron microscopy (SEM). UPLC MS/MS was used for drug quantitation. […] The improved hydrophobicity of MCAB facilitated production of stable formulations with high drug loading capacity.

[2] = test system: human monocyte derived macrophages (MDM); assay: Uptake and retention of drug in human monocyte derived macrophages (HPLC); type: cell-based
Description: Human monocytes were cultured in macrophage colony stimulating factor containing cell culture medium for 7-10 days in order to differentiate into macrophages (Balkundi et al. (2011) Intl. J. Nanomed., 6:3393-3404; Nowacek et al. (2009) Nanomed., 4(8):903-917). The macrophages were incubated with a range of formulations and native drugs. At each time point, adherent MDM were washed three times with 1 mL of PBS, scraped into 1 mL of fresh PBS and pelleted by centrifugation at 950×g for 8 minutes. The cell pellet was reconstituted in 200 μl of high performance liquid chromatography (HPLC)-grade methanol and probe sonicated followed by centrifugation at 20,000×g for 20 minutes. The supernatant was analyzed for drug content using HPLC (FIG. 2A and FIG. 2B). […] Human monocytes were cultured in macrophage colony stimulating factor containing cell culture medium for 7-10 days in order to differentiate into macrophages (Balkundi et al. (2011) Intl. J. Nanomed., 6:3393-3404; Nowacek et al. (2009) Nanomed., 4(8):903-917). The macrophages were incubated with a range of formulations and native drugs. At each time point, adherent monocyte-derived macrophage (MDM) were washed three times with 1 mL of PBS, scraped into 1 mL of fresh PBS and pelleted by centrifugation at 950×g for 8 minutes. […] The supernatant was analyzed for drug content using HPLC (FIGS. 4A and 4B). […]

[3] = test system: HIV-1ADA; assay: Antiretroviral activity in MDM challenged with HIV-1ADA (RT activity, HIV-1 p24 staining); type: cell-based; conditions: MDM treated with 100 μM for 8 hours, challenged with HIV-1ADA at MOI 0.01; RT activity and p24
Description: MDM were treated with either 100 μM DTG, MDTG, P407-MDTG or FA-P407-MDTG for 8 hours. The cells were washed with PBS to remove excess of free drug and nanoparticles. The MDM were challenged with HIV-1ADA at a MOI of 0.01 infectious viral particles/cell for 18 hours on day 1, 5, 10 and 15. Progeny virion production was measured by reverse transcriptase (RT) activity in culture medium (Kalter et al. (1992) J. Clin. Microbiol., 30(4):993-995) (FIG. 2C). HIV-1 p24 protein antigen expression was assessed (Guo et al. (2014) J. Virol., 88(17):9504-9513). The MDM were washed with PBS and fixed with 4% paraformaldehyde for 15 minutes at room temperature. The cells were blocked using 10% BSA containing 1% Triton X-100 in PBS for 30 minutes at room temperature. Following blocking, cells were incubated with HIV-1 p24 mouse monoclonal antibodies (1:50; Dako, Carpinteria, Calif., USA) for overnight at 4° C., followed by 1 hour incubation at room temperature. […]
MDM were treated with either 100 μM CAB long acting parenteral (CAB-LAP), P407-CAB, P407-MCAB or FA-P407-MCAB for 8 hours. […] Progeny virion production was measured by reverse transcription (RT) activity in culture medium (Kalter et al. (1992) J. Clin. Microbiol., 30(4):993-995). HIV-1 p24 protein antigen expression was assessed (Guo et al. (2014) J. Virol., 88(17):9504-9513) (FIG. 4C). […]

| Compound | hydrophobicity [1] | intracellular accumulation of the drug ([2]; MDM, compared to CAB-LAP) | MDM retention ([2]; cellular retention in MDM) | antiretroviral efficacy [3] |
| --- | --- | --- | --- | --- |
| CCCCCCCCCCCCCC(=O)Oc1c2n(cc(C(=O)NCc3ccc(F)cc3F)c1=O)CC1OCC(C)N1C2=O (centres unmarked) [MCAB] | greatly improved | significantly improved | – | – |
| CCCCCCCCCCCCCC(=O)Oc1c2n(cc(C(=O)NCc3ccc(F)cc3F)c1=O)C[C@@H]1OCC[C@@H](C)N1C2=O [MDTG] | greatly improved | – | significant enhancements | significant enhancements |
